This is an account of results in ChEMBL document CHEMBL3525964 (Drug Metab Dispos, 2012).

The target of data set [1] is T1, Cytochrome P450 3A4 (Homo sapiens, UniProt P08684). Briefly: Fraction metabolized assessed as human recombinant CYP3A4-mediated drug depletion by LC-MS/MS method relative to total normalized intrinsic clearance. Type of data set: ADME. Particulars: recombinant enzyme.
In data set [2] the target is T2, Cytochrome P450 2C9 (Homo sapiens, UniProt P11712). Briefly: Drug metabolism in human liver microsomes assessed as CYP3A4-mediated drug depletion in presence of CYP2C9 inhibitor sulfaphenazole by LC-MS/MS method. It counts as ADME.
In data set [3] the target is T1, Cytochrome P450 3A4. Description: Drug metabolism in human liver microsomes assessed as CYP3A4-mediated drug depletion in presence of CYP2D6 inhibitor quinidine by LC-MS/MS method. Type of data set: ADME. Background: Liver microsomes are vesicles of endoplasmic reticulum, rich in cytochrome P450 enzymes.
Data set [4] is described as follows: Total drug excretion in human treated with [14C}LY2452473 at 15 mg, po administered as single dose by HPLC analysis. Type of data set: ADME, organism-based. As to conditions: in vivo, read-out: Drug excretion.
For data set [5], the target named is T3, Cytochrome P450 1A2 (Homo sapiens, UniProt P05177).
T3 sequence (P05177 whole entry): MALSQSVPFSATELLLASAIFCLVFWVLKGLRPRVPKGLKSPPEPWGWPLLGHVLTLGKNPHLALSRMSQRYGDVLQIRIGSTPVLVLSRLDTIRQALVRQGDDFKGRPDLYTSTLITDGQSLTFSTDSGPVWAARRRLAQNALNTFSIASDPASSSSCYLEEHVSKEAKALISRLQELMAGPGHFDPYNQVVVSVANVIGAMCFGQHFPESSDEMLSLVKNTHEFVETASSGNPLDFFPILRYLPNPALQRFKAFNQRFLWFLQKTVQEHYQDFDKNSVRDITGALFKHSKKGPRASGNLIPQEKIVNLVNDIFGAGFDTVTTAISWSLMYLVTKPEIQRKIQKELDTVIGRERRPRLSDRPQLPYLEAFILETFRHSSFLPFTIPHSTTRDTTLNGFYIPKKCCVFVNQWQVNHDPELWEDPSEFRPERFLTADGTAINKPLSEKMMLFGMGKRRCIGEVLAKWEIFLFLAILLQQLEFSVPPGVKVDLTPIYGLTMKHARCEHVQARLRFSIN
Description: Drug metabolism assessed as human recombinant CYP1A2-mediated drug depletion by LC-MS/MS method. Type of data set: ADME. Particulars: recombinant enzyme.

The target in data set [6] is T4, Cytochrome P450 2B6 (Homo sapiens, UniProt P20813).
T4 sequence (P20813 whole entry): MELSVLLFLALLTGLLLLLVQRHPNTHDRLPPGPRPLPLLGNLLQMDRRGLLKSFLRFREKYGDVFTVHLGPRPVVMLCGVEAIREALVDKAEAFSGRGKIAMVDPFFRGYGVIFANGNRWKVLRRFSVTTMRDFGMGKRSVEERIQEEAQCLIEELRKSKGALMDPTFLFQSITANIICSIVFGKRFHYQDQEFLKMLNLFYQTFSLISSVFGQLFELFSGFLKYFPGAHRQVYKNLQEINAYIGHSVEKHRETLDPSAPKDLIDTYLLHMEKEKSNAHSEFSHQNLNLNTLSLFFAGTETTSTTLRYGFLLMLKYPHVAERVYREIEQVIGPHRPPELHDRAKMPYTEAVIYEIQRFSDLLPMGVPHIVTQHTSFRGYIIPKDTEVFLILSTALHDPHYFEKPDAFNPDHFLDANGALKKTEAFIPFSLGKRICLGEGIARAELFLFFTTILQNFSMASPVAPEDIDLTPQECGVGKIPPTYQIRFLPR
Briefly: Drug metabolism assessed as human recombinant CYP2B6-mediated drug depletion by LC-MS/MS method. Type of data set: ADME. Particulars: recombinant enzyme.

For data set [7], the target named is T5, Cytochrome P450 2C8 (Homo sapiens, UniProt P10632).
T5 sequence (P10632 whole entry): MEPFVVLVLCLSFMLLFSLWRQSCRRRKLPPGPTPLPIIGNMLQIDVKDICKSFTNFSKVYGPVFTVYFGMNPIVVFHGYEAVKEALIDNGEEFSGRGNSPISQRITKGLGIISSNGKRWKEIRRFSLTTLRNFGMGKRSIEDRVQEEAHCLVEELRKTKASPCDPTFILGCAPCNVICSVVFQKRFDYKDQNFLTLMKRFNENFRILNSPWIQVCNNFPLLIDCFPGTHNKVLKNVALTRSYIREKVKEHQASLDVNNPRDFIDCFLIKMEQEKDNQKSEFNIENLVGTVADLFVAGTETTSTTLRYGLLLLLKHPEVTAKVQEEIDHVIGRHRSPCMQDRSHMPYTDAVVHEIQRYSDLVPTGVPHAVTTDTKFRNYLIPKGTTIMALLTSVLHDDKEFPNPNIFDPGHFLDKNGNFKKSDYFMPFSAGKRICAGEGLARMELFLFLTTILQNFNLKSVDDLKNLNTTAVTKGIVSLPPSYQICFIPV
Description: Drug metabolism assessed as human recombinant CYP2C8-mediated drug depletion by LC-MS/MS method. Particulars: recombinant enzyme. It counts as ADME.

The target of data set [8] is T2, Cytochrome P450 2C9. Description: Intrinsic clearance assessed as human recombinant CYP2C9-mediated drug depletion per pmol protein by LC-MS/MS method. It counts as ADME. Particulars: recombinant enzyme.
The target of data set [9] is T2, Cytochrome P450 2C9. Briefly: Normalized intrinsic clearance assessed as human recombinant CYP2C9-mediated drug depletion per pmol protein by LC-MS/MS method. Type of data set: ADME. As to conditions: recombinant enzyme.
In data set [10] the target is T6, Cytochrome P450 2J2 (Homo sapiens, UniProt P51589).
T6 sequence (P51589 whole entry): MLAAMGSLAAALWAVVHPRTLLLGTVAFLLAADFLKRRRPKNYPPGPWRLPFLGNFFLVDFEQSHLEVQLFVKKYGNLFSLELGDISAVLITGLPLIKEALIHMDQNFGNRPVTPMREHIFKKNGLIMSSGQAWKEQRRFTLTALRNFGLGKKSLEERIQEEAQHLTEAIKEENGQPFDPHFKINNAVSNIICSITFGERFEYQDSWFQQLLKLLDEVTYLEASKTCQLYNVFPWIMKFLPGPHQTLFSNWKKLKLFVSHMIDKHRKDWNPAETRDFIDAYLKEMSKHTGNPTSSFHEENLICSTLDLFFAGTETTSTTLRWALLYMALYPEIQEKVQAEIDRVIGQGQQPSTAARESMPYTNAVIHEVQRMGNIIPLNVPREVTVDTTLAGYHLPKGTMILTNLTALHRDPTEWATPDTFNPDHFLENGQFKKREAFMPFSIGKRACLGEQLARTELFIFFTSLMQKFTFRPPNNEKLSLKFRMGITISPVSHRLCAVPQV
Description: Normalized intrinsic clearance assessed as human recombinant CYP2J2-mediated drug depletion per pmol protein by LC-MS/MS method. It counts as ADME. Particulars: recombinant enzyme.

For data set [11], the target named is Cytochrome P450 2C19 (Homo sapiens, UniProt P33261). Briefly: Fraction metabolized assessed as human recombinant CYP2C19-mediated drug depletion by LC-MS/MS method relative to total normalized intrinsic clearance. Type of data set: ADME. Particulars: recombinant enzyme.
For data set [12], the target named is T6, Cytochrome P450 2J2. Briefly: Fraction metabolized assessed as human recombinant CYP2J2-mediated drug depletion by LC-MS/MS method relative to total normalized intrinsic clearance. It counts as ADME. Particulars: recombinant enzyme.
In data set [13] the test system is Homo sapiens. Briefly: AUC (0 to last) in human at 15 mg, po administered as single dose by liquid scintillation counting method. It counts as ADME, organism-based, Plasma. Also noted: dose 15 mg, time 0 - last, route oral. As to conditions: in vivo.
Data set [14] concerns Plasma. Briefly: Drug level in human plasma treated with [14C}LY2452473 at 15 mg, po after 2 hrs administered as single dose by HPLC analysis. Type of data set: ADME, organism-based. As to conditions: in vivo.
Data set [15] concerns Plasma. Description: Drug level in human plasma treated with [14C}LY2452473 at 15 mg, po after 8 hrs administered as single dose by HPLC analysis. Particulars: in vivo. Type of data set: ADME, organism-based.

T2 sequence (P11712 whole entry): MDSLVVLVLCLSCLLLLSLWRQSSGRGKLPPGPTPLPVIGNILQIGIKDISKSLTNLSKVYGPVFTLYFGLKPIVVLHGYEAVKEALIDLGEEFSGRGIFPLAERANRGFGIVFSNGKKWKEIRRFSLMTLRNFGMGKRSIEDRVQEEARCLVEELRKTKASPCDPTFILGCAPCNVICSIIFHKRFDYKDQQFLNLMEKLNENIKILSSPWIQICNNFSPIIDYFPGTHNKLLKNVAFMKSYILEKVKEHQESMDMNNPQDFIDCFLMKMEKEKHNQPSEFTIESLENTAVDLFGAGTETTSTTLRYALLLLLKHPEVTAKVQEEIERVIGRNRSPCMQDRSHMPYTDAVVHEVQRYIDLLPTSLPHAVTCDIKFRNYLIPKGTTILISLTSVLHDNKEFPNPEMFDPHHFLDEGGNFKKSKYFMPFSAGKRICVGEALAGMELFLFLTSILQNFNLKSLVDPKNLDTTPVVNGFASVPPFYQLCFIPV
T1 sequence (P08684 whole entry): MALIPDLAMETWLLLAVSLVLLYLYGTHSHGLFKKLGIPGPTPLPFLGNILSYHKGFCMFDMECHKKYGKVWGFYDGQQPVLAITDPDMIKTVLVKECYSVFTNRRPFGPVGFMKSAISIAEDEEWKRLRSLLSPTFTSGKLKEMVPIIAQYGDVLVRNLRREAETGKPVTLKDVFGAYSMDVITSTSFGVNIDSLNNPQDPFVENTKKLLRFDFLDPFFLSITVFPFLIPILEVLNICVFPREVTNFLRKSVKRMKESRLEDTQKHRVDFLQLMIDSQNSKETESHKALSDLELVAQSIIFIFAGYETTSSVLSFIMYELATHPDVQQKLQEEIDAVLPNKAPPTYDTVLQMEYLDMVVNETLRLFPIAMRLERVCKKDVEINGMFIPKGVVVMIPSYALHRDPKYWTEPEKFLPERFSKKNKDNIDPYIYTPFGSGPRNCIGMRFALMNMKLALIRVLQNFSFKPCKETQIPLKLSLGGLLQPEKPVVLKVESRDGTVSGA
Cytochrome P450 2C19, sequence (P33261 whole entry): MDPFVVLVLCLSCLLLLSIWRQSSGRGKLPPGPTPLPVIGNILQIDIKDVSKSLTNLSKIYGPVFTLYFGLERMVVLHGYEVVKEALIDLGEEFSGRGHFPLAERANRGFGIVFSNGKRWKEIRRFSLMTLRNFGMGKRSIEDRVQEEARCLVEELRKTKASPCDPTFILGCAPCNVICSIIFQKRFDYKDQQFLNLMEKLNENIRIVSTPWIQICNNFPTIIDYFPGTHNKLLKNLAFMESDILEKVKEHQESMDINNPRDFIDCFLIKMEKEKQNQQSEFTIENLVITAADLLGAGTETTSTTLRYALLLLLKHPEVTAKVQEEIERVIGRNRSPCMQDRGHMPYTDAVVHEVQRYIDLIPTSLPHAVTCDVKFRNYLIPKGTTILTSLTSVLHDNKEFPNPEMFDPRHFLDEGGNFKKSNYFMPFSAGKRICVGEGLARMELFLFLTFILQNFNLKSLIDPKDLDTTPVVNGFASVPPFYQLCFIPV

For `CC(C)OC(=O)N[C@H]1Cc2c(n(Cc3ccccn3)c3ccc(C#N)cc23)C1` [LY2452473], the Fm in [1] was determined as 68%; in data set [11], 4.9%; in data set [12], 15%. Besides, the Drug metabolism result in data set [2], in [3], in [5], in data set [6] and in data set [7] was “metabolite_not_detected” each time. Also, in data set [4], the dose excreted came to 1.84%. Moreover, the CL in data set [8] was 0.1 µL/min; in data set [9], 10 µL/min; in [10], 18 µL/min. Further, the AUClast in [13] was found to be 1310 ng·h/mL. Moreover, the Drug uptake in data set [14] turned out to be 72.93%; in data set [15], 42.36%.
